Data from ChEMBL document CHEMBL1131203, “Second generation "peptoid" CCK-B receptor antagonists: identification and development of N-(adamantyloxycarbonyl)-alpha-methyl-(R)-tryptophan derivative (CI-1015) with an improved pharmacokinetic profile” (J Med Chem, 1998).

How the values were obtained:
[1] = molecular target: T1, Cholecystokinin receptor type A (Rattus norvegicus, UniProt P30551); test: Inhibitory concentration against radioligand [125I]Bolton-Hunter labeled CCK-8 to cholecystokinin type A receptor in the rat pancreas
T1 sequence (P30551 whole entry): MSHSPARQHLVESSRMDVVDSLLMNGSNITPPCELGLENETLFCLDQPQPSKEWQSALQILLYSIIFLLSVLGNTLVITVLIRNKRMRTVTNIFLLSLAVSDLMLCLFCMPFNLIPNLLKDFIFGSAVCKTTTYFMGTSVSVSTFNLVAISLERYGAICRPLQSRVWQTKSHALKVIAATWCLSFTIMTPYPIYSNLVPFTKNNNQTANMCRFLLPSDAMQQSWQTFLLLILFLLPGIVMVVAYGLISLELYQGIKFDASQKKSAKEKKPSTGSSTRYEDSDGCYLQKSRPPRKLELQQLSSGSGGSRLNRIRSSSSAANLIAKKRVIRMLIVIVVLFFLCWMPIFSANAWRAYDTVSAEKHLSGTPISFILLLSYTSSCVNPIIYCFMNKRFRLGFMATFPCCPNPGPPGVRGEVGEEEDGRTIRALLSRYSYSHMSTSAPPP

[2] = Ratio of IC50 towards CCK-A receptor and CCK-B receptor
[3] = molecular target: T2, Gastrin/cholecystokinin type B receptor (Mus musculus, UniProt P56481); test: Inhibitory concentration against radioligand [125I]Bolton-Hunter labeled CCK-8 to cholecystokinin type B receptor in the mouse cerebral cortex; format: tissue-based
T2 sequence (P56481 whole entry): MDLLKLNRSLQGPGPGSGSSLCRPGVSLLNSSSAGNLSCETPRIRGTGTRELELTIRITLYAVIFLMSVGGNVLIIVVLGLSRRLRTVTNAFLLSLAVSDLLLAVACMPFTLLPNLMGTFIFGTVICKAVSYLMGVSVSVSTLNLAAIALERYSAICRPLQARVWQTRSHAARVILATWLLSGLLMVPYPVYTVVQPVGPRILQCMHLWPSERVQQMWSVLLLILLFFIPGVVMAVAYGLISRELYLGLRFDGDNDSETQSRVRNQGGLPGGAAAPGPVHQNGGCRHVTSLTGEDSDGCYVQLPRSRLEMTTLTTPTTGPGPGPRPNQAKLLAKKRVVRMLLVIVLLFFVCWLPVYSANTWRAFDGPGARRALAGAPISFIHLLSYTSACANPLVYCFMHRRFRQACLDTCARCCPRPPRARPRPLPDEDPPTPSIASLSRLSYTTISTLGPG

IC50 [1]	Ratio [2]	IC50 [3]	Compound
1.5 µM	429	0.0035 µM	C[C@](Cc1c[nH]c2ccccc12)(NC(=O)OC1C2CC3CC(C2)CC1C3)C(=O)NC1CCCCC1C#N (stereo partly drawn)
1.51 µM	12.5	0.121 µM	C[C@](Cc1c[nH]c2ccccc12)(NC(=O)OC1C2CC3CC(C2)CC1C3)C(=O)NC1(CO)CCCCC1 (stereo partly drawn)
1.53 µM	18.4	0.083 µM	C[C@](Cc1c[nH]c2ccccc12)(NC(=O)OC1C2CC3CC(C2)CC1C3)C(=O)NC1(C(=O)O)CCCCC1 (stereo partly drawn)
3.43 µM	1370	0.0025 µM	COC[C@H]1CCCN1NC(=O)[C@@](C)(Cc1c[nH]c2ccccc12)NC(=O)OC1C2CC3CC(C2)CC1C3 (stereo partly drawn)
1.17 µM	5.5	0.214 µM	COC(=O)CC(CC(=O)OC)NC(=O)[C@@](C)(Cc1c[nH]c2ccccc12)NC(=O)OC1C2CC3CC(C2)CC1C3 (stereo partly drawn)
3.23 µM	71	0.0455 µM	C[C@](Cc1c[nH]c2ccccc12)(NC(=O)OC1C2CC3CC(C2)CC1C3)C(=O)NC1CCCCCC1 (stereo partly drawn)
1.25 µM		0.166 µM	C[C@](Cc1c[nH]c2ccccc12)(NC(=O)OC1C2CC3CC(C2)CC1C3)C(=O)NC1CC2CCC1C2 (stereo in doubt; 22)
1.24 µM	267	0.00465 µM	C[C@](Cc1c[nH]c2ccccc12)(NC(=O)OC1C2CC3CC(C2)CC1C3)C(=O)N[C@@H]1CCCCC[C@H]1O (stereo partly drawn)
1.94 µM			C[C@](Cc1c[nH]c2ccccc12)(NC(=O)OC1C2CC3CC(C2)CC1C3)C(=O)N[C@H]1CCCC[C@@H]1O (stereo partly drawn)
1.46 µM		0.0785 µM	C[C@](Cc1c[nH]c2ccccc12)(NC(=O)OC1C2CC3CC(C2)CC1C3)C(=O)NC1CC2CCC1C2 (stereo in doubt; 21)
1.42 µM	5.3	0.268 µM	C[C@](Cc1c[nH]c2ccccc12)(NC(=O)OC1C2CC3CC(C2)CC1C3)C(=O)NC1(CO)CCCC1 (stereo partly drawn)
1.66 µM	65	0.0255 µM	C[C@](Cc1c[nH]c2ccccc12)(NC(=O)OC1C2CC3CC(C2)CC1C3)C(=O)N[C@H]1CCCCC[C@@H]1O (stereo partly drawn)
1.56 µM	238	0.0065 µM	C[C@](Cc1c[nH]c2ccccc12)(NC(=O)OC1C2CC3CC(C2)CC1C3)C(=O)NN1CC2CCC(CC2)C1 (stereo partly drawn)
1.99 µM	10.4	0.191 µM	COC(=O)C1(NC(=O)[C@@](C)(Cc2c[nH]c3ccccc23)NC(=O)OC2C3CC4CC(C3)CC2C4)CCCCC1 (stereo partly drawn)
